Among the data in patent US20120115852A1, “HETEROCYCLIC COMPOUNDS AS AUTOTAXIN INHIBITORS” (Merck Patent Gesellschaft Mit Beschrankter Haftung, priority 2009, published 2012) are remaining activity and IC50 values, retold here.

The target in this experiment is T1, recombinant autotaxin (Homo sapiens, UniProt Q13822).
T1 construct: made in house; host or cells: Hi5 insect cells (baculovirus)
Nature of the experiment: Autotaxin test (enzyme test), Amplex Red fluorescence with LPC substrate. Type of experiment: biochemical. The following applies: autotaxin inhibition (enzyme test); for remaining activity at 10 µM: 10 μM compound, read-out: % Control at 10 μM. The method, then:
Autotaxin Inhibition (Enzyme Test)
Autotaxin Test (Enzyme Test)
The autotaxin activity is measured indirectly using Amplex Red reagent. Amplex Red is measured here as fluorogenic indicator for the H2O2 formed. In detail, autotaxin converts the substrate lysophosphatidylcholine (LPC) into phosphocholine and lysophosphatidylic acid (LPA). After this reaction, the phosphocholine is reacted with alkaline phosphatase to give inorganic phosphate and choline. In the next step, choline is oxidised by choline oxidase to give betaine, with formation of H2O2. H2O2 reacts with Amplex Red reagent in the presence of peroxidase (horseradish peroxidase) in a 1:1 stoichiometry and forms the highly fluorescent resorufin. The fluorescence is measured in a reaction-dependent kinetic mode in order that fluorescent signals from possible other fluorescent substances which are not involved in the reaction can be corrected out.
3 μl of a standard solution or of the test substances (substances with the name A(n)) in individual concentrations dissolved in 20 mM Hepes pH 7.2 with a maximum of 11% of DMSO are pre-incubated together with 20 μl (19 ng) of highly purified recombinant autotaxin in test buffer in a black microtitre plate provided with 384 wells at 22° C. for 30 min. The reaction is then initiated by addition of 10 μl of L-α-lysophosphatidylcholine (LPC), where the final concentration of LPC is 75 μM. The mixture is incubated at 37° C. for 90 min. After the incubation, Amplex Red reagent, peroxidase (horseradish peroxidase) and choline oxidase is added, and the fluorescence is immediately measured at 612 nm with excitation of 485 nm in a “Tecan Ultra multimode” reader. The activity of autotaxin is calculated indirectly via detection of the H2O2 formed.
• Microtitre plate: PS microplate, 384 wells, small volume, black Corning, Cat#3677 • Protein: recombinant autotaxin (Baculovirale Hi5 Expression) • Substrate: L-α-lysophosphatidylcholine (chicken egg)); Avanti Polar Lipids #830071 P • Standard: C14 LPA, Avanti Polar Lipids, Cat#857120P • Detection reagent: Amplex Red reagent; Invitrogen #A12222; 5 mg dissolved in 1.923 ml of DMSO peroxidase type VI-A (horseradish) from Sigma #P6782; 5 mg dissolved in 7.45 ml of test buffer, choline oxidase; Sigma # C5896; 50 U dissolved in 2.47 ml of test buffer • Detection reagent mix: 1:50 dilution of detection reagent in test buffer • Test buffer: 10 mM Tris HCl, Merck, Cat #1.08219, pH 8, 1 mM; CaCl2×2 H2O, Merck #1.02382

For orientation: IC50 means the point on the concentration scale where inhibition reaches its midpoint. In the case of `Cc1ccc(-c2ccc3c(c2)C(=O)N2CCN(C(=O)CC(C)(C)C)CC2C(=O)N3)c(F)c1F` (stereo not shown) [Compound A82, 7-(2,3-Difluoro-4-methylphenyl)-2-(3,3-dimethyl-butyryl)-1,3,4,11a-tetrahydro-2H,10H-2,4a,10-triazadibenzo[a,d]cycloheptene-5,11-dione], the remaining activity at 10 µM is -16% and the IC50 lay in the range of 100 to 1000 nM.

For the compound `CC(C)(C)CC(=O)N1CCN2C(=O)c3cc(-c4cccc(F)c4F)ccc3NC(=O)C2C1` (stereo not shown) [Compound A88, 7-(2,3-Difluorophenyl)-2-(3,3-dimethylbutyryl)-1,3,4,11a-tetrahydro-2H,10H-2,4a,10-triaza-dibenzo[a,d]cycloheptene-5,11-dione], the remaining activity at 10 µM is -6% and the IC50 was above 1000 nM.

`O=C1Nc2ccc(-c3ccc(Cl)cc3)cc2C(=O)N2CCN(C(=O)c3ccccc3)CC12` (stereo not shown) [Compound B27]: the remaining activity at 10 µM was determined as 59% and the IC50 was above 1000 nM.

In the case of `CC(C)(C)CC(=O)N1CCN2Cc3cc(-c4ccccc4F)ccc3NCC2C1` (stereo not shown) [Compound 25, 1-[7-(2-fluorophenyl)-3,4,5,10,11,11a-hexahydro-1H-2,4-a,10-triazadibenzo[a,d]cyclohepten-2-yl]-3,3-dimethylbutan-1-one], the remaining activity at 10 µM was determined as 53% and the IC50 was above 1000 nM.

On to `O=C1Nc2ccc(-c3ccc(Cl)cc3)cc2C(=O)N2CCN(C(=O)c3cnc[nH]3)CC12` (stereo not shown) [Compound A75, 7-(4-Chlorophenyl)-2-(3H-imidazole-4-carbonyl)-1,3,4,11a-tetrahydro-2H,10H-2,4a,10-triaza-dibenzo[a,d]cycloheptene-5,11-dione], for which the remaining activity at 10 µM turned out to be 55%.

Take `C#Cc1ccc(-c2ccc3c(c2)C(=O)N2CCN(C(=O)CC(C)(C)C)CC2C(=O)N3)cc1` (stereo not shown) [Compound A140, 2-(3,3-Dimethylbutyryl)-7-(4-ethynylphenyl)-1,3,4,11a-tetrahydro-2H,10H-2,4a,10-triaza-dibenzo[a,d]cycloheptene-5,11-dione]: the remaining activity at 10 µM was -10% and the IC50 was above 1000 nM.

As to `CC(C)(C)[C@@H](N)C(=O)N1CCN2C(=O)c3cc(-c4ccc(Cl)cc4)ccc3NC(=O)C2C1` (stereo partly drawn) [Compound A53, 2-((R)-2-Amino-3,3-dimethylbutyryl)-7-(4-chloro-phenyl)-1,3,4,11a-tetrahydro-2H,10H-2,4a,10-triazadibenzo[a,d]cycloheptene-5,11-dione], the half-maximal inhibitory concentration (IC50) was above 1000 nM.

In the case of `CC(C)(C)[C@H](O)C(=O)N1CCN2C(=O)c3cc(-c4ccc(Cl)cc4)ccc3NC(=O)[C@H]2C1` [Compound A56, (R)-7-(4-Chlorophenyl)-2-((S)-2-hydroxy-3,3-di-methyl-1-oxobutyl)-1,3,4,11a-tetrahydro-2H,10H-2,4a,10-triazadibenzo[a,d]cycloheptene-5,11-dione], the IC50 is 100 to 1000 nM.

As for `CC(C)(C)[C@H](O)C(=O)N1CCN2C(=O)c3cc(-c4ccc(Cl)cc4)ccc3NC(=O)[C@@H]2C1` [Compound A54, (S)-7-(4-Chlorophenyl)-2-((S)-2-hydroxy-3,3-di-methyl-1-oxobutyl)-1,3,4,11a-tetrahydro-2H,10H-2,4a,10-triazadibenzo[a,d]cycloheptene-5,11-dione], the remaining activity at 10 µM amounted to 84%.

As for `Cc1nc(C)c(C(=O)N2CCN3C(=O)c4cc(-c5ccc(Cl)cc5)ccc4NC(=O)C3C2)s1` (stereo not shown) [Compound A73, 7-(4-Chlorophenyl)-2-(2,4-dimethylthiazole-5-carbonyl)-1,3,4,11a-tetrahydro-2H,10H-2,4a,10-triazadibenzo[a,d]cycloheptene-5,11-dione], the remaining activity at 10 µM turned out to be 78%.

`CN(C)c1ccc(C(=O)N2CCN3C(=O)c4cc(-c5ccc(Cl)cc5)ccc4NC(=O)[C@H]3C2)cc1` [Compound A9, (R)-7-(4-Chlorophenyl)-2-(4-dimethylamino-benzoyl)-1,3,4,11a-tetrahydro-2H,10H-2,4a,10-triazadibenzo[a,d]cycloheptene-5,11-dione]: the remaining activity at 10 µM was 84%.
